Laboratory results published in US20260043020A1, “BINDING MEMBERS WITH ALTERED DIVERSITY SCAFFOLD DOMAINS” (priority 2016, published 2026).

Target: T1, trypsin (Bos taurus, UniProt P00760)
T1 construct: gene PRSS1
T1 sequence (P00760 24-246): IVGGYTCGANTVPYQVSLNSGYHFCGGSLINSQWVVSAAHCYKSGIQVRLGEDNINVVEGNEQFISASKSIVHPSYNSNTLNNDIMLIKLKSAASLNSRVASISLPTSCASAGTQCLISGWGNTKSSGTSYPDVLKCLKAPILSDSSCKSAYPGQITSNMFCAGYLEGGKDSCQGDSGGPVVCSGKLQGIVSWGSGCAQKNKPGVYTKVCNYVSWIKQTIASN
Test: Polyclonal phage TRF binding assay on trypsin
Details: phage display; direct gene-III fusion or round-2 polyclonal phage
Protocol: Phage display technology facilitates isolation of binders to any given target from large combinatorial repertoires based on proteins and peptides that can be presented on the surface of filamentous phage^105. In order to isolate functional knottin-antibody fusions from the KnotBody libraries multiple rounds of phage display selections on trypsin (cognate antigen for the EETI-II donor) were carried out. Phage particles were prepared by rescuing KnotBody libraries using trypsin cleavable helper phage^102,106Two rounds of phage display selections were performed on 10 μg/ml biotinylated trypsin immobilised on Streptavidin (for Round-1) or Neutravidin (for round-2) coated Maxisorp™ immunotubes (Thermo Scientific, Cat No. 444202). In both rounds of selection, phage libraries were pre-incubated with streptavidin coated paramagnetic beads (Thermo Fisher Scientific, Cat. No. 11205D). […] Polyclonal phage preparations from round-2 selection outputs were analysed for trypsin binding using a time resolved fluorescence (TRF) binding assay. In this assay, polyclonal phage binding to biotinylated trypsin immobilised on neutravidin (Thermo Fisher Scientific, Cat. No 31000) coated Maxisorp™ plates (Thermo Scientific, Cat. No. 437111) was detected using a mouse anti-M13 antibody (GE Healthcare, Cat. No. 27-9420-01) followed by europium conjugated anti-mouse antibody (Perkin Elmer, Cat. No. AD0124). […]

EETI-II was tested, and the “phage binding to trypsin” value was “no detectable binding”.
